Reference: US11466020B2, “Compounds and compositions for inhibition and elimination of Zika infection and uses for same” (Cornell University, priority 2017, dated 2022)
Entries after “also recorded” stand apart in the source; their conditions may differ. Counter-ions that a name gives are not always drawn.

Test system: ZIKV (MR766 strain)
Experiment: ZIKV infection of human forebrain organoids (MR766)
Assay type: cell-based, Zika virus
Protocol: (A) Experimental design for evaluating the therapeutic efficacy and safety of HH using forebrain organoids. D20 or D40 Forebrain organoids were exposed to ZIKV (5×10^5 PFU/ml) or mock-treated for 24 h. After removal of ZIKV-containing medium, fresh virus-free medium plus compounds were added. Organoids were analyzed at day 4 (D20+4) or day 18 (D20+18) after initial ZIKV infection. (B and C) HH eliminates ZIKV infection in short-term cultures. Immunocytochemistry analysis (B) and the quantification of infection rate (C) of mock, DMSO or 25 μM HH treated ZIKV-infected D20 organoids (n=3). Scale bars, 100 μm. D20+4 organoids mainly consist of SOX2^+ progenitors and are highly infiltrated by ZIKV. […] (D) qRT-PCR analysis of total ZIKV vRNA in the supernatant of DMSO or 25 μM HH treated ZIKV-infected D20 and D40 organoids (n=3). (E) HH rescues ZIKV-related proliferation and apoptosis defects in D20+4 organoids. The number of proliferating cells (Ki67^+) is decreased and the number of apoptotic cells (CAS^+) is increased in ZIKV-infected organoids compared to mock and 25 μM HH treated organoids (n=3). Scale bars, 100 μm. […] Scale bars, 50 μm. […] Quantifications show average organoid perimeter of D20+18 organoids (H). Values represent mean±SEM (n=3). Scale bars, 1 mm. (I) HH rescues ZIKV-induced structural defects in forebrain organoids. Mock treated organoids contain clearly defined progenitor (SOX2) and neuronal (TUJ1) zones. Neurons migrate out of progenitor zones and settle at the edge of the organoid, while progenitor zones occupy more interior regions of the organoid. In contrast, D20+18 ZIVK infected organoids lack clearly defined progenitor and neuronal zones, which appear to intermix. Both neuron and progenitor zones appear to settle at the edge of the organoid. HH rescues the well-delineated structure of forebrain organoids (n=3). Scale bars, 100 μm. p values were calculated by unpaired two-tailed Student's t-test. *p<0.05, **p<0.01 and ***p<0.001.
D20 forebrain organoids were inoculated with ZIKV (MR766 strain) for 24 h, followed by treatment with 15 μM AQ or 25 μM HH for 3 days (D20+4, short-term) or 17 days (D20+18, long-term). Organoids were analyzed for ZIKV infection, cell proliferation, and apoptosis (FIG. 3A).
Generation and culture of human forebrain organoids. To induce forebrain organoid differentiation, H9 hESC line (WA-09, WiCell) hPSCs were dissociated to single cells using EDTA, and 9000 cells were reaggregated using low-adhesion V-bottom 96 well plates (Wako) in Essential8 Medium (Fisher Scientific) with 10 μM Y-27632 (Tocris Biosciences). After 24 h (day 0), medium was changed to Essential6 (Fischer Scientific) supplemented with 10 μM SB431542 (Tocris Biosciences), 500 nM LDN193189 (Stem Cell Technologies), and 2 μM XAV939 (Tocris Biosciences) until day 4. […]

SMILES	total ZIKV vRNA level in supernatant from D20+4 organoids (25 μM HH)	ZIKV infection rate in D20+4 forebrain organoids (25 μM HH, 3 day treatment, hydrobromide)	ZIKV infection in D20+18 organoids (long-term) (HH treated, 18 days after infection, hydrobromide)	ZIKV infection in D20 organoids (15 μM AQ, D20+4, dihydrochloride dihydrate)
CN1CCC2=C[C@H](O)[C@H]3OC(=O)c4cc5c(cc4[C@H]3[C@@H]21)OCO5 [HH, hippeastrine hydrobromide]	suppresses total ZIKV vRNA level	undetectable levels; also recorded: below the detection limit	devoid of any detectable ZIKV; also recorded: suppressed any detectable ZIKV infection	–
CCN(CC)Cc1cc(Nc2ccnc3cc(Cl)ccc23)ccc1O [AQ, amodiaquine dihydrochloride dihydrate]	–	–	–	suppresses ZIKV infection; also recorded: reduces ZIKV infection
